Laboratory results taken from patent US20240025863A1, “SOS1 PROTEIN DEGRADERS, PHARMACEUTICAL COMPOSITIONS THEREOF, AND THEIR THERAPEUTIC APPLICATIONS” (BioTheryX, Inc., priority 2020, published 2024).

Legend:
Type in all cases: cell-based
Lovo cells (G13D) = experiment: Cell viability assay (CellTiter-Glo), Lovo cells; settings: Homo sapiens, 72 h; Lovo cells, 3 days incubation, CellTiter-Glo luminescence; read-out: Inhibition of Cancerous Cells IC50 Lovo (G13D)
Summary of the method: (§1)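 Viability is measured by CellTiter-Glo luminescence following a 3-day compound incubation at 37 °C in medium with 2.5% FBS.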

SW480 cells (G12V) = experiment: Cell viability assay (CellTiter-Glo), SW480 cells; settings: Homo sapiens, 72 h; SW480 cells, 3 days incubation, CellTiter-Glo luminescence; read-out: Inhibition of Cancerous Cells IC50 SW480 (G12V)
Summary of the method: as §1

SW48 cells (wt) = experiment: Cell viability assay (CellTiter-Glo), SW48 cells; settings: Homo sapiens, 72 h; SW48 cells, 3 days incubation, CellTiter-Glo luminescence; read-out: Inhibition of Cancerous Cells IC50 SW48 (wt)
Summary of the method: as §1

AsPC-1 cells (G12D) = experiment: Cell viability assay (CellTiter-Glo), AsPC-1 cells; settings: Homo sapiens, ASPC1, 72 h, 3 days incubation, CellTiter-Glo luminescence, read-out: Inhibition of Cancerous Cells IC50 AsPC-1 (G12D)
Method: H358, H23, SW48, and AsPC-1 cells were cultured in RPMI 1640 media supplemented with 10% fetal bovine serum, streptomycin, and penicillin. Lovo and SW480 cells were cultured in DMEM media supplemented with 10% fetal bovine serum, streptomycin, and penicillin. The cell lines were plated in their respective medium supplemented with 2.5% fetal bovine serum, streptomycin, and penicillin. All cell lines were plated in white walled 96-well plates at 2,000 cells/well or 384-well plates at 500 cells/well, except Lovo, which were plated at 4,000 or 1,000 cells/well, respectively. The cells were incubated in DMSO (control) or a compound for 3 days at 37° C. under 5% CO2. A CELLTITER-GLO® reagent (100 μL) was then added to each well. After a 10 min incubation with shaking, luminescence was measured using an ENVISION® multimode plate reader.

H358 cells (G12C) = experiment: Cell viability assay (CellTiter-Glo), H358 cells; settings: Homo sapiens, NCI-H358, 72 h; H358 cells, 3 days incubation, CellTiter-Glo luminescence; read-out: Inhibition of Cancerous Cells IC50 H358 (G12C)
Summary of the method: as §1

| SMILES | IC50 (Lovo cells (G13D)) | IC50 (SW480 cells (G12V)) | IC50 (SW48 cells (wt)) | IC50 (AsPC-1 cells (G12D)) | IC50 (H358 cells (G12C)) |
| --- | --- | --- | --- | --- | --- |
| COc1cc2c(N[C@H](C)c3cc(N)cc(C(F)(F)F)c3)nc(C)nc2cc1OCCCCCCCN1CCC(c2cc3c(cc2F)C(=O)N(C2CCC(=O)NC2=O)C3)CC1 (stereo partly drawn) [Compound A28, 3-(5-(1-(7-((4-(((R)-1-(3-Amino-5-(trifluoromethyl)phenyl)ethyl)amino)-6-methoxy-2-methylquinazolin-7-yl)oxy)heptyl)piperidin-4-yl)-6-fluoro-1-oxoisoindolin-2-yl)-piperidine-2,6-dione] | 550 nM | 500 nM | 440 nM | 1100 nM | 1200 nM |
| COc1cc2c(N[C@H](C)c3cccc(Br)c3)nc(C)nc2cc1OCCCCN1CCN(C(=O)COc2cc3c(cc2F)C(=O)N(C2CCC(=O)NC2=O)C3)CC1 (stereo partly drawn) [Compound A29, 3-(5-(2-(4-(4-((4-(((R)-1-(3-Bromophenyl)ethyl)amino)-6-methoxy-2-methyl-quinazolin-7-yl)oxy)butyl)piperazin-1-yl)-2-oxoethoxy)-6-fluoro-1-oxoisoindolin-2-yl)-piperidine-2,6-dione] | 730 nM | 5700 nM | 890 nM | > 10000 nM | 6800 nM |
| COc1cc2c(N[C@H](C)c3cccc(Br)c3)nc(C)nc2cc1OCCCCN1CCN(C(=O)CNc2cc3c(cc2F)C(=O)N(C2CCC(=O)NC2=O)C3)CC1 (stereo partly drawn) [Compound A30, 3-(5-((2-(4-(4-((4-(((R)-1-(3-Bromophenyl)ethyl)amino)-6-methoxy-2-methyl-quinazolin-7-yl)oxy)butyl)piperazin-1-yl)-2-oxoethyl)amino)-6-fluoro-1-oxoisoindolin-2-yl)-piperidine-2,6-dione] | 40 nM | 3900 nM | 640 nM | 7800 nM | 4200 nM |
| COc1cc2c(N[C@H](C)c3cccc(Br)c3)nc(C)nc2cc1OCCCCCN1CCN(C(=O)CNc2cc3c(cc2F)C(=O)N(C2CCC(=O)NC2=O)C3)CC1 (stereo partly drawn) [Compound A32, 3-(5-((2-(4-(5-((4-(((R)-1-(3-Bromophenyl)ethyl)amino)-6-methoxy-2-methyl-quinazolin-7-yl)oxy)pentyl)piperazin-1-yl)-2-oxoethyl)amino)-6-fluoro-1-oxoisoindolin-2-yl)-piperidine-2,6-dione] | 60 nM | 4400 nM | 470 nM | > 10000 nM | > 10000 nM |
| COc1cc2c(N[C@H](C)c3cccc(Br)c3)nc(C)nc2cc1OCCCCCCN1CCN(CCCc2cc3c(cc2F)C(=O)N(C2CCC(=O)NC2=O)C3)CC1 (stereo partly drawn) [Compound A42, 3-(5-(3-(4-(6-((4-(((R)-1-(3-Bromophenyl)ethyl)amino)-6-methoxy-2-methyl-quinazolin-7-yl)oxy)hexyl)piperazin-1-yl)propyl)-6-fluoro-1-oxoisoindolin-2-yl)piperidine-2,6-dione] | 520 nM | 480 nM | 1000 nM | 1400 nM | 890 nM |
| COc1cc2c(N[C@H](C)c3cccc(Br)c3)nc(C)nc2cc1OCCCCCCN1CCN(CC#Cc2cc3c(cc2F)C(=O)N(C2CCC(=O)NC2=O)C3)CC1 (stereo partly drawn) [Compound A43, 3-(5-(3-(4-(6-((4-(((R)-1-(3-Bromophenyl)ethyl)amino)-6-methoxy-2-methyl-quinazolin-7-yl)oxy)hexyl)piperazin-1-yl)prop-1-yn-1-yl)-6-fluoro-1-oxoisoindolin-2-yl)-piperidine-2,6-dione] | 340 nM | 440 nM | 620 nM | 830 nM | 1300 nM |
| COc1cc2c(N[C@H](C)c3cccc(Br)c3)nc(C)nc2cc1OCCCN1CCC2(CC1)CCN(c1cc3c(cc1F)C(=O)N(C1CCC(=O)NC1=O)C3)CC2 (stereo partly drawn) [Compound A44, 3-(5-(9-(3-((4-(((R)-1-(3-Bromophenyl)ethyl)amino)-6-methoxy-2-methyl-quinazolin-7-yl)oxy)propyl)-3,9-diazaspiro[5.5]undecan-3-yl)-6-fluoro-1-oxoisoindolin-2-yl)piperidine-2,6-dione] | 530 nM | 440 nM | 610 nM | 980 nM | 1200 nM |

The next lines start with the values.

| IC50 (Lovo cells (G13D)) | IC50 (SW480 cells (G12V)) | IC50 (SW48 cells (wt)) | IC50 (AsPC-1 cells (G12D)) | IC50 (H358 cells (G12C)) | SMILES |
| --- | --- | --- | --- | --- | --- |
| 1200 nM | 900 nM | 2000 nM | 5200 nM | 2300 nM | COc1cc2c(N[C@H](C)c3cccc(Br)c3)nc(C)nc2cc1OCCCCCCCCCNc1cccc2nc(C)n(C3CCC(=O)NC3=O)c(=O)c12 (stereo partly drawn) [Compound A45, 3-(5-((9-((4-(((R)-1-(3-Bromophenyl)ethyl)amino)-6-methoxy-2-methyl-quinazolin-7-yl)oxy)nonyl)amino)-2-methyl-4-oxoquinazolin-3(4H)-yl)piperidine-2,6-dione] |
| 990 nM | 720 nM | 2700 nM | > 10000 nM | > 10000 nM | COc1cc2c(N[C@H](C)c3cccc(Br)c3)nc(C)nc2cc1OCCCCCCCCCCCNc1cccc2nc(C)n(C3CCC(=O)NC3=O)c(=O)c12 (stereo partly drawn) [Compound A46, 3-(5-((11-((4-(((R)-1-(3-Bromophenyl)ethyl)amino)-6-methoxy-2-methyl-quinazolin-7-yl)oxy)undecyl)amino)-2-methyl-4-oxoquinazolin-3(4H)-yl)piperidine-2,6-dione] |
| 910 nM | 740 nM | 1400 nM | 3700 nM | 3000 nM | COc1cc2c(N[C@H](C)c3cccc(Br)c3)nc(C)nc2cc1OCCCCCCCNc1cccc2nc(C)n(C3CCC(=O)NC3=O)c(=O)c12 (stereo partly drawn) [Compound A47, 3-(5-((7-((4-(((R)-1-(3-Bromophenyl)ethyl)amino)-6-methoxy-2-methyl-quinazolin-7-yl)oxy)heptyl)amino)-2-methyl-4-oxoquinazolin-3(4H)-yl)piperidine-2,6-dione] |
| 4900 nM | 4700 nM | 5300 nM | > 10000 nM | > 10000 nM | COc1cc2c(N[C@H](C)c3cccc(Br)c3)nc(C)nc2cc1OCCCCCCC(=O)N1CCC(c2cc(F)cc3c2CN(C2CCC(=O)NC2=O)C3=O)CC1 (stereo partly drawn) [Compound A59, 3-(4-(1-(7-((4-(((R)-1-(3-Bromophenyl)ethyl)amino)-6-methoxy-2-methyl-quinazolin-7-yl)oxy)heptanoyl)piperidin-4-yl)-6-fluoro-1-oxoisoindolin-2-yl)piperidine-2,6-dione] |
| 4300 nM | 4000 nM | 3800 nM | 8400 nM | > 10000 nM | COc1cc2c(N[C@H](C)c3cccc(Br)c3)nc(C)nc2cc1OCCCCCCC(=O)N1CCC(c2cc3c(cc2F)C(=O)N(C2CCC(=O)NC2=O)C3)CC1 (stereo partly drawn) [Compound A60, 3-(5-(1-(7-((4-(((R)-1-(3-Bromophenyl)ethyl)amino)-6-methoxy-2-methyl-quinazolin-7-yl)oxy)heptanoyl)piperidin-4-yl)-6-fluoro-1-oxoisoindolin-2-yl)piperidine-2,6-dione] |
| > 10000 nM | 2700 nM | > 10000 nM |  | > 10000 nM | COc1cc2c(N[C@H](C)c3cccc(Br)c3)nc(C)nc2cc1OCCCCCCCCCCCCC(=O)N[C@H](C(=O)N1C[C@H](O)C[C@H]1C(=O)NCc1ccc(-c2scnc2C)cc1)C(C)(C)C [Compound D4, (2S,4R)-1-((S)-2-(13-((4-(((R)-1-(3-Bromophenyl)ethyl)amino)-6-methoxy-2-methylquinazolin-7-yl)oxy)tridecanamido)-3,3-dimethylbutanoyl)-4-hydroxy-N-(4-(4-methylthiazol-5-yl)benzyl)pyrrolidine-2-carboxamide] |
| 3100 nM | 3500 nM | 5400 nM |  | 4300 nM | COc1cc2c(N[C@H](C)c3cccc(Br)c3)nc(C)nc2cc1OCCCCCCCCCOc1cc(-c2scnc2C)ccc1CNC(=O)[C@@H]1C[C@@H](O)CN1C(=O)[C@@H](NC(C)=O)C(C)(C)C [Compound D12, (2S,4R)-1-((S)-2-acetamido-3,3-dimethylbutanoyl)-N-(2-((9-((4-(((R)-1-(3-bromophenyl)ethyl)amino)-6-methoxy-2-methylquinazolin-7-yl)oxy)nonyl)oxy)-4-(4-methylthiazol-5-yl)benzyl)-4-hydroxypyrrolidine-2-carboxamide] |
| 1600 nM | 2900 nM | > 10000 nM |  | > 10000 nM | COc1cc2c(N[C@H](C)c3cccc(Br)c3)nc(C)nc2cc1OCCCCCCCCCCCOc1cc(-c2scnc2C)ccc1CNC(=O)[C@@H]1C[C@@H](O)CN1C(=O)[C@@H](NC(C)=O)C(C)(C)C [Compound D13, (2S,4R)-1-((S)-2-Acetamido-3,3-dimethylbutanoyl)-N-(2-((11-((4-(((R)-1-(3-bromophenyl)ethyl)amino)-6-methoxy-2-methylquinazolin-7-yl)oxy)undecyl)oxy)-4-(4-methylthiazol-5-yl)benzyl)-4-hydroxypyrrolidine-2-carboxamide] |
